These molecules were tested on HCT116 cells (assay: In vitro cytotoxicity measured by the cell colony formation assay). Details: HCT116 cells, 72 h drug incubation, colonies counted after 7 days; ID50 = drug concentration producing 50% inhibition of colony formation; read-out: IN VITRO ID 50 (nm) HCT116.
Format: cell-based
How it was run: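 Colony-forming survival was scored 7 days after a 72 h, 37 °C compound exposure followed by washout into fresh medium.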

Row | SMILES | IC50 [nM]
1 | CC(=O)O[C@@]12CO[C@@H]1C[C@H](OC(=O)NC(C)(C)C)[C@@]1(C)C(=O)[C@H](O)C3=C(C)[C@@H](OC(=O)[C@H](O)[C@@H](NC(=O)OC(C)(C)C)c4ccco4)C[C@@](O)([C@@H](OC(=O)c4ccccc4)C12)C3(C)C (stereo partly shown) [Compound 5454] | < 10
2 | CC(=O)O[C@@]12CO[C@@H]1C[C@H](OC(=O)Nc1ccc(F)c(F)c1)[C@@]1(C)C(=O)[C@H](O)C3=C(C)[C@@H](OC(=O)[C@H](O)[C@@H](NC(=O)C=C(C)C)c4ccco4)C[C@@](O)([C@@H](OC(=O)c4ccccc4)C12)C3(C)C (stereo partly shown) [Compound 5522] | < 1
3 | CC(=O)O[C@@]12CO[C@@H]1C[C@H](OC(=O)Nc1ccccc1)[C@@]1(C)C(=O)[C@H](O)C3=C(C)[C@@H](OC(=O)[C@H](O)[C@@H](NC(=O)C=C(C)C)c4ccco4)C[C@@](O)([C@@H](OC(=O)c4ccccc4)C12)C3(C)C (stereo partly shown) [Compound 5535, N-Debenzoyl-N-isobutenyl-3′-desphenyl-3′-(2-furyl)-7-phenylcarbamoyl taxol] | < 1
4 | CCNC(=O)O[C@H]1C[C@H]2OC[C@@]2(OC(C)=O)C2[C@H](OC(=O)c3ccccc3)[C@]3(O)C[C@H](OC(=O)[C@H](O)[C@@H](NC(=O)C=C(C)C)c4ccco4)C(C)=C([C@@H](O)C(=O)[C@@]21C)C3(C)C (stereo partly shown) [Compound 5588] | < 1
5 | CCCNC(=O)O[C@H]1C[C@H]2OC[C@@]2(OC(C)=O)C2[C@H](OC(=O)c3ccccc3)[C@]3(O)C[C@H](OC(=O)[C@H](O)[C@@H](NC(=O)OC(C)(C)C)c4ccco4)C(C)=C([C@@H](O)C(=O)[C@@]21C)C3(C)C (stereo partly shown) [Compound 5665] | > 50
6 | C/C=C/C(=O)N[C@@H](c1ccco1)[C@@H](O)C(=O)O[C@H]1C[C@@]2(O)[C@@H](OC(=O)c3ccccc3)C3[C@](C)(C(=O)[C@H](O)C(=C1C)C2(C)C)[C@@H](OC(=O)Nc1ccccc1)C[C@H]1OC[C@@]31OC(C)=O (stereo partly shown) [Compound 5757] | < 10
7 | CC=CC(=O)NC(c1ccco1)C(O)C(=O)OC1CC2(O)C(OC(=O)c3ccccc3)C3C4(OC(C)=O)COC4CC(OC(=O)Nc4ccc(F)c(F)c4)C3(C)C(=O)C(O)C(=C1C)C2(C)C (stereo not shown) [Compound 5800] | < 10
8 | C/C=C/C(=O)N[C@@H](c1ccco1)[C@@H](O)C(=O)O[C@H]1C[C@@]2(O)[C@@H](OC(=O)c3ccccc3)C3[C@](C)(C(=O)[C@H](O)C(=C1C)C2(C)C)[C@@H](OC(=O)NCC)C[C@H]1OC[C@@]31OC(C)=O (stereo partly shown) [Compound 5822] | < 10
9 | C/C=C/C(=O)N[C@@H](c1ccco1)[C@@H](O)C(=O)O[C@H]1C[C@@]2(O)[C@@H](OC(=O)c3ccccc3)C3[C@](C)(C(=O)[C@H](O)C(=C1C)C2(C)C)[C@@H](OC(=O)NC1CCCCC1)C[C@H]1OC[C@@]31OC(C)=O (stereo partly shown) [Compound 5895] | < 1

Same assay, conditions: HCT116 cells, 72 h incubation with drug, colonies counted after 7 days; ID50 = drug concentration producing 50% inhibition of colony formation; read-out: IN VITRO ID 50 (nm) HCT116

Row | SMILES | IC50 [nM]
10 | CC(=O)O[C@@]12CO[C@@H]1C[C@H](OC(=O)OCc1ccccc1)[C@@]1(C)C(=O)[C@H](O)C3=C(C)[C@@H](OC(=O)[C@H](O)[C@@H](NC(=O)C=C(C)C)c4ccco4)C[C@@](O)([C@@H](OC(=O)c4ccccc4)C12)C3(C)C (stereo partly shown) [Compound 5466] | < 1
11 | CCOC(=O)O[C@H]1C[C@H]2OC[C@@]2(OC(C)=O)C2[C@H](OC(=O)c3ccccc3)[C@]3(O)C[C@H](OC(=O)[C@H](O)[C@@H](NC(=O)C=C(C)C)c4ccco4)C(C)=C([C@@H](O)C(=O)[C@@]21C)C3(C)C (stereo partly shown) [Compound 6151] | < 1

Same assay, conditions: HCT116 cells, colony formation, 72 h incubation with drug, colonies counted after 7 days; ID50 = drug concentration producing 50% inhibition of colony formation; read-out: IN VITRO ID 50 (nm) HCT116

Row | SMILES | IC50 [nM]
12 | C/C=C/C(=O)N[C@@H](c1ccco1)[C@@H](O)C(=O)O[C@H]1C[C@@]2(O)[C@@H](OC(=O)c3ccccc3)C3[C@](C)(C(=O)[C@H](OC(=O)Nc4ccc(F)c(F)c4)C(=C1C)C2(C)C)[C@@H](O)C[C@H]1OC[C@@]31OC(C)=O (stereo partly shown) [Compound 6015] | < 10
13 | C/C=C/C(=O)N[C@@H](c1ccco1)[C@@H](O)C(=O)O[C@H]1C[C@@]2(O)[C@@H](OC(=O)c3ccccc3)C3[C@](C)(C(=O)[C@H](OC(=O)Nc4ccccc4)C(=C1C)C2(C)C)[C@@H](O)C[C@H]1OC[C@@]31OC(C)=O (stereo partly shown) [Compound 6024] | < 1
14 | C/C=C/C(=O)N[C@@H](c1ccco1)[C@@H](O)C(=O)O[C@H]1C[C@@]2(O)[C@@H](OC(=O)c3ccccc3)C3[C@](C)(C(=O)[C@H](OC(=O)NCC)C(=C1C)C2(C)C)[C@@H](O)C[C@H]1OC[C@@]31OC(C)=O (stereo partly shown) [Compound 6072] | < 1

Same assay, conditions: HCT116 colony formation; 72 h drug incubation, colonies counted after 7 days; Example 5, C-7 ester/C-10 hydroxy taxanes; read-out: IN VITRO ID 50 (nm) HCT116

Row | SMILES | IC50 [nM]
15 | CC(=O)O[C@@]12CO[C@@H]1C[C@H](OC(=O)C(C)C)[C@@]1(C)C(=O)[C@H](O)C3=C(C)[C@@H](OC(=O)[C@H](O)[C@@H](NC(=O)OC=C(C)C)c4ccco4)C[C@@](O)([C@@H](OC(=O)c4ccccc4)C12)C3(C)C (stereo partly shown) [Compound 5989] | < 10
16 | CC(=O)O[C@@]12CO[C@@H]1C[C@H](OC(=O)C=C(C)C)[C@@]1(C)C(=O)[C@H](O)C3=C(C)[C@@H](OC(=O)[C@H](O)[C@@H](NC(=O)OCC(C)C)c4ccco4)C[C@@](O)([C@@H](OC(=O)c4ccccc4)C12)C3(C)C (stereo partly shown) [Compound 6040] | < 10
17 | CC(=O)O[C@@]12CO[C@@H]1C[C@H](OC(=O)C(C)C)[C@@]1(C)C(=O)[C@H](O)C3=C(C)[C@@H](OC(=O)[C@H](O)[C@@H](NC(=O)C(C)C)c4ccco4)C[C@@](O)([C@@H](OC(=O)c4ccccc4)C12)C3(C)C (stereo partly shown) [Compound 6121] | < 10
18 | CC(=O)O[C@@]12CO[C@@H]1C[C@H](OC(=O)CC(C)C)[C@@]1(C)C(=O)[C@H](O)C3=C(C)[C@@H](OC(=O)[C@H](O)[C@@H](NC(=O)OC=C(C)C)c4ccco4)C[C@@](O)([C@@H](OC(=O)c4ccccc4)C12)C3(C)C (stereo partly shown) [Compound 6131] | < 1
19 | CCCCC(=O)O[C@H]1C[C@H]2OC[C@@]2(OC(C)=O)C2[C@H](OC(=O)c3ccccc3)[C@]3(O)C[C@H](OC(=O)[C@H](O)[C@@H](NC(=O)OC=C(C)C)c4ccco4)C(C)=C([C@@H](O)C(=O)[C@@]21C)C3(C)C (stereo partly shown) [Compound 6141] | < 1

Same assay, conditions: HCT116 colony formation; 72 h drug incubation, colonies counted after 7 days; Example 10, C-10 ester/C-7 hydroxy taxanes; read-out: IN VITRO ID 50 (nm) HCT116

Row | SMILES | IC50 [nM]
20 | CCC(=O)O[C@H]1C(=O)[C@@]2(C)C([C@H](OC(=O)c3ccccc3)[C@]3(O)C[C@H](OC(=O)[C@H](O)[C@@H](NC(=O)OC(C)(C)C)c4ccoc4)C(C)=C1C3(C)C)[C@]1(OC(C)=O)CO[C@@H]1C[C@@H]2O (stereo partly shown) [Compound 5495] | < 1

Same assay, conditions: HCT116 colony formation; 72 h drug incubation, colonies counted after 7 days; Example 15, C-7 substituted acetate/C-10 hydroxy taxanes; read-out: IN VITRO ID 50 (nm) HCT116

Row | SMILES | IC50 [nM]
21 | COCC(=O)O[C@H]1C[C@H]2OC[C@@]2(OC(C)=O)C2[C@H](OC(=O)c3ccccc3)[C@]3(O)C[C@H](OC(=O)[C@H](O)[C@@H](NC(=O)OC(C)(C)C)c4ccco4)C(C)=C([C@@H](O)C(=O)[C@@]21C)C3(C)C (stereo partly shown) [Compound 5445] | < 1
22 | COCC(=O)O[C@H]1C[C@H]2OC[C@@]2(OC(C)=O)C2[C@H](OC(=O)c3ccccc3)[C@]3(O)C[C@H](OC(=O)[C@H](O)[C@@H](NC(=O)C=C(C)C)c4ccco4)C(C)=C([C@@H](O)C(=O)[C@@]21C)C3(C)C (stereo partly shown) [Compound 5474] | < 1
23 | CC(=O)OCC(=O)O[C@H]1C[C@H]2OC[C@@]2(OC(C)=O)C2[C@H](OC(=O)c3ccccc3)[C@]3(O)C[C@H](OC(=O)[C@H](O)[C@@H](NC(=O)C=C(C)C)c4ccco4)C(C)=C([C@@H](O)C(=O)[C@@]21C)C3(C)C (stereo partly shown) [Compound 5544] | < 1
24 | CC(=O)O[C@@]12CO[C@@H]1C[C@H](OC(=O)COc1ccccc1)[C@@]1(C)C(=O)[C@H](O)C3=C(C)[C@@H](OC(=O)[C@H](O)[C@@H](NC(=O)C=C(C)C)c4ccco4)C[C@@](O)([C@@H](OC(=O)c4ccccc4)C12)C3(C)C (stereo partly shown) [Compound 5555] | < 1
25 | CSCC(=O)O[C@H]1C[C@H]2OC[C@@]2(OC(C)=O)C2[C@H](OC(=O)c3ccccc3)[C@]3(O)C[C@H](OC(=O)[C@H](O)[C@@H](NC(=O)OC(C)(C)C)c4ccco4)C(C)=C([C@@H](O)C(=O)[C@@]21C)C3(C)C (stereo partly shown) [Compound 5600] | < 1
26 | CC(=O)O[C@@]12CO[C@@H]1C[C@H](OC(=O)COc1ccccc1)[C@@]1(C)C(=O)[C@H](O)C3=C(C)[C@@H](OC(=O)[C@H](O)[C@@H](NC(=O)OC(C)(C)C)c4ccco4)C[C@@](O)([C@@H](OC(=O)c4ccccc4)C12)C3(C)C (stereo partly shown) [Compound 5616] | < 1
27 | CC(=O)OCC(=O)O[C@H]1C[C@H]2OC[C@@]2(OC(C)=O)C2[C@H](OC(=O)c3ccccc3)[C@]3(O)C[C@H](OC(=O)[C@H](O)[C@@H](NC(=O)OC(C)(C)C)c4ccco4)C(C)=C([C@@H](O)C(=O)[C@@]21C)C3(C)C (stereo partly shown) [Compound 5622] | < 1
28 | C/C=C/C(=O)N[C@@H](c1ccco1)[C@@H](O)C(=O)O[C@H]1C[C@@]2(O)[C@@H](OC(=O)c3ccccc3)C3[C@](C)(C(=O)[C@H](O)C(=C1C)C2(C)C)[C@@H](OC(=O)COc1ccccc1)C[C@H]1OC[C@@]31OC(C)=O (stereo partly shown) [Compound 5811] | < 1
29 | C/C=C/C(=O)N[C@@H](c1ccco1)[C@@H](O)C(=O)O[C@H]1C[C@@]2(O)[C@@H](OC(=O)c3ccccc3)C3[C@](C)(C(=O)[C@H](O)C(=C1C)C2(C)C)[C@@H](OC(=O)COC)C[C@H]1OC[C@@]31OC(C)=O (stereo partly shown) [Compound 5835] | < 1

Same assay, conditions: HCT116 colony formation; 72 h drug incubation, colonies counted after 7 days; Example 20, C-10 substituted acetate/C-7 hydroxy taxanes; read-out: IN VITRO ID 50 (nm) HCT116

Row | SMILES | IC50 [nM]
30 | C/C=C/C(=O)N[C@@H](c1ccco1)[C@@H](O)C(=O)O[C@H]1C[C@@]2(O)[C@@H](OC(=O)c3ccccc3)C3[C@](C)(C(=O)[C@H](OC(=O)COC)C(=C1C)C2(C)C)[C@@H](O)C[C@H]1OC[C@@]31OC(C)=O (stereo partly shown) [Compound 6066] | < 1
31 | C/C=C/C(=O)N[C@@H](c1ccco1)[C@@H](O)C(=O)O[C@H]1C[C@@]2(O)[C@@H](OC(=O)c3ccccc3)C3[C@](C)(C(=O)[C@H](OC(=O)COc4ccccc4)C(=C1C)C2(C)C)[C@@H](O)C[C@H]1OC[C@@]31OC(C)=O (stereo partly shown) [Compound 6111] | < 1

From US6638973B2, “Taxane formulations” (FSU Research Foundation, Inc., priority 2000, dated 2003)
